# Laboratory results: patent EP2556819A1, “EXTERNAL SKIN PREPARATION” (Kao Corporation, priority 2010, dated 2011)
# System: cultured skin model containing melanin cells (MEL-300, Asian Doner, manufactured by Kurabo Industries, Ltd.)
# Test: Melanin production inhibition test using three-dimensional cultured skin model
# Format: cell-based
# Settings: 336 h; Addition concentration 50 µM; cultured for 14 days; read-out: Melanin production inhibition rate (% with respect to control)
# From the text: 4-(3-alkoxybutyl)phenol obtained in the above-mentioned Production Example 1 was subjected to the below-mentioned melanin production inhibition test. Note here that as a comparison target, 4-(3-hydroxybutyl)phenol in which an alkyl group had been removed from 4-(3-alkoxybutyl)phenol -and 4-(3-acetoxybutyl)phenol and 4-(3-propanoyloxybutyl)phenol as an ester compound having the same number of carbon atoms, were used.
# To a skin model cup of a cultured skin model containing melanin cells (MEL-300, Asian Doner, manufactured by Kurabo Industries, Ltd.), 0.2 mL of a solution of a test substance was placed, and the skin model was cultured for 14 days by using an LLMM medium attached to the product. During the culture period, the medium was replaced by a new medium every three days. After culture for 14 days, the skin model was washed, the survival rate was measured by fluorescence measurement (Excitation: 560 nm, Emission: 590 nm) using an AlamarBlue reagent (manufactured by Molecular Probe), and the amount of melanin synthesized in each skin model was measured. The amount of melanin synthesized was determined by the colorimetric determination (405 nm) of a solution obtained by immersing each skin model in PBS so as to separate a cell layer, then washing it with PBS and hydrous ethanol, adding 0.2 mL of a 2N NaOH aqueous solution, and extracting melanin at 100°C for three hours.
row,Structure (SMILES),inhibition at 50 µM
1,"CC(C)OC(C)CCc1ccc(O)cc1 (stereo not drawn) [4-(3-Isopropoxybutyl)phenol, 4-(3-isopropoxybutyl)phenol]",56.9%
2,"CCC(=O)OC(C)CCc1ccc(O)cc1 (stereo not drawn) [4-(3-Propanoyloxybutyl)phenol, 4-(3-propanoyloxybutyl)phenol, reference compound]",18.4%
3,"CCCOC(C)CCc1ccc(O)cc1 (stereo not drawn) [4-(3-Propoxybutyl)phenol, 4-(3-propoxybutyl)phenol]",69.5%

# Same assay, conditions: 336 h; Addition concentration 100 µM; cultured for 14 days; read-out: Melanin production inhibition rate (% with respect to control)
row,Structure (SMILES),inhibition at 100 µM
1,"CC(=O)OC(C)CCc1ccc(O)cc1 (stereo not drawn) [4-(3-Acetoxybutyl)phenol, 4-(3-acetoxybutyl)phenol, reference compound]",26.7%
2,"CCOC(C)CCc1ccc(O)cc1 (stereo not drawn) [4-(3-Ethoxybutyl)phenol, 4-(3-ethoxybutyl)phenol]",56%
3,"CC(O)CCc1ccc(O)cc1 (stereo not drawn) [4-(3-Hydroxybutyl)phenol, 4-(3-hydroxybutyl)phenol, reference compound]",18.6%
4,"COC(C)CCc1ccc(O)cc1 (stereo not drawn) [4-(3-Methoxybutyl)phenol, 4-(3-methoxybutyl)phenol]",55.6%

# System: B16 melanoma cells
# Test: in vitro melanin production inhibition test
# Format: cell-based
# Settings: Mus musculus, concentration inhibiting production of melanin by 50%, cultured for 72 hours, theophylline 2 mmol/L, melanin per unit amount of protein
# Method: The 4-(3-alkoxybutyl)phenol compound obtained in the above-mentioned Production Example 1 was subjected to the following melanin production inhibition test. Note here that as a comparison target, arbutin, ascorbic acid, kojic acid, and linoleic acid, which are known to have a melanin production-inhibitory action, were used. B16 melanoma cells were seeded in a minimum essential medium (MEM) supplemented with 10 vol% fetal bovine serum in 12-well plates at 1 × 10^4 cells/well, and pre-cultured for 24 hours by a usual method. After pre-culture, the medium was replaced to a test medium to which each evaluation sample had been added at various concentrations, and the medium was cultured for 72 hours. As the test medium, the above-mentioned pre-culture medium to which theophylline had been added at 2 mmol/L was used. After culture, cells were collected and dissolved in 1 mol/L of an aqueous solution of sodium hydroxide containing 10 vol% dimethyl sulfoxide, and an OD475 value of the solution was measured and the value was defined as an index of the amount of melanin. Furthermore, at the same time, by using Coomasie Plus Protein Assay Kit (manufactured by PIERCE), the total amount of protein in the solution was measured, and the amount of melanin per unit amount of protein was calculated. Based on the amount of melanin per unit amount of protein, the melanin production inhibition rate was calculated per each addition concentration from the following formula. Melanin production inhibition rate (%) = (A-B)/A [formula] (wherein A denotes the amount of melanin per unit amount of protein when no sample was added, and B denotes the amount of melanin per unit amount of protein when a sample was added). Next, a graph in which the concentration of the added sample is plotted on the axis of abscissas, and a melanin production inhibition rate is plotted in the axis of ordinates was formed, and concentration at which each evaluation sample inhibits the production of melanin by 50% (IC50) was determined from this graph.
row,Structure (SMILES),IC50
1,"CCOC(C)CCc1ccc(O)cc1 (stereo not drawn) [4-(3-Ethoxybutyl)phenol, 4-(3-ethoxybutyl)phenol]",2 µg/mL
2,"CC(C)OC(C)CCc1ccc(O)cc1 (stereo not drawn) [4-(3-Isopropoxybutyl)phenol, 4-(3-isopropoxybutyl)phenol]",2 µg/mL
3,"COC(C)CCc1ccc(O)cc1 (stereo not drawn) [4-(3-Methoxybutyl)phenol, 4-(3-methoxybutyl)phenol]",2 µg/mL
4,"CCCOC(C)CCc1ccc(O)cc1 (stereo not drawn) [4-(3-Propoxybutyl)phenol, 4-(3-propoxybutyl)phenol]",2.5 µg/mL
5,"OC[C@H]1O[C@@H](Oc2ccc(O)cc2)[C@H](O)[C@@H](O)[C@@H]1O [Arbutin, arbutin, reference compound]",30 µg/mL
6,"O=C1O[C@H]([C@@H](O)CO)C(O)=C1O [Ascorbic acid, ascorbic acid, reference compound]",60 µg/mL
7,"O=c1cc(CO)occ1O [Kojic acid, kojic acid, reference compound]",180 µg/mL
8,"CCCCC/C=C\C/C=C\CCCCCCCC(=O)O [Linoleic acid, linoleic acid, reference compound]",4 µg/mL

# System: not listed separately
# Test: Solubility test
# Format: physicochemical
# Settings: oil or lipid, thermodynamic from solid; Glyceryl tri(2-ethylhexanoate); 0.1 g compound + 1 mL solvent, heated at 40°C for 10 min., returned to room temperature, visual observation
# Method: By using 4-(3-ethoxybutyl)phenol obtained in the above-mentioned Production Example 1, the following solubility test was carried out. Note here that as a comparison target, 4-(3-hydroxybuty)phenol was used.
# To 0.1 g of each compound, 1 mL of each solvent described in the following table 1 was added. The mixture was heated at 40°C for 10 min., and then the temperature was returned to room temperature. The solubility in the solvent at this time was evaluated by visual observation. The evaluation was carried out in which a case where it was dissolved was evaluated as "a" and a case where insolubles were left was evaluated as "b."
row,Structure (SMILES),solubility at 10 min
1,"CCOC(C)CCc1ccc(O)cc1 (stereo not drawn) [4-(3-Ethoxybutyl)phenol, 4-(3-ethoxybutyl)phenol]",> 100 mg/mL
2,"CC(O)CCc1ccc(O)cc1 (stereo not drawn) [4-(3-Hydroxybutyl)phenol, 4-(3-hydroxybutyl)phenol, reference compound]",< 100 mg/mL

# Same assay, conditions: oil or lipid, thermodynamic from solid; Isocetyl myristate; 0.1 g compound + 1 mL solvent, heated at 40°C for 10 min., returned to room temperature, visual observation
row,Structure (SMILES),solubility at 10 min
1,"CCOC(C)CCc1ccc(O)cc1 (stereo not drawn) [4-(3-Ethoxybutyl)phenol, 4-(3-ethoxybutyl)phenol]",> 100 mg/mL
2,"CC(O)CCc1ccc(O)cc1 (stereo not drawn) [4-(3-Hydroxybutyl)phenol, 4-(3-hydroxybutyl)phenol, reference compound]",< 100 mg/mL

# Same assay, conditions: oil or lipid, thermodynamic from solid; Methylphenyl polysiloxane (Silicon FZ209); 0.1 g compound + 1 mL solvent, heated at 40°C for 10 min., returned to room temperature, visual observation
row,Structure (SMILES),solubility at 10 min
1,"CCOC(C)CCc1ccc(O)cc1 (stereo not drawn) [4-(3-Ethoxybutyl)phenol, 4-(3-ethoxybutyl)phenol]",> 100 mg/mL
2,"CC(O)CCc1ccc(O)cc1 (stereo not drawn) [4-(3-Hydroxybutyl)phenol, 4-(3-hydroxybutyl)phenol, reference compound]",< 100 mg/mL

# Same assay, conditions: oil or lipid, thermodynamic from solid; Octyldodecyl myristate; 0.1 g compound + 1 mL solvent, heated at 40°C for 10 min., returned to room temperature, visual observation
row,Structure (SMILES),solubility at 10 min
1,"CCOC(C)CCc1ccc(O)cc1 (stereo not drawn) [4-(3-Ethoxybutyl)phenol, 4-(3-ethoxybutyl)phenol]",> 100 mg/mL
2,"CC(O)CCc1ccc(O)cc1 (stereo not drawn) [4-(3-Hydroxybutyl)phenol, 4-(3-hydroxybutyl)phenol, reference compound]",> 100 mg/mL

# Same assay, conditions: organic solvent or mixture, thermodynamic from solid; Dipropylene glycol; 0.1 g compound + 1 mL solvent, heated at 40°C for 10 min., returned to room temperature, visual observation
row,Structure (SMILES),solubility at 10 min
1,"CCOC(C)CCc1ccc(O)cc1 (stereo not drawn) [4-(3-Ethoxybutyl)phenol, 4-(3-ethoxybutyl)phenol]",> 100 mg/mL
2,"CC(O)CCc1ccc(O)cc1 (stereo not drawn) [4-(3-Hydroxybutyl)phenol, 4-(3-hydroxybutyl)phenol, reference compound]",> 100 mg/mL

# Same assay, conditions: organic solvent or mixture, thermodynamic from solid; Ethanol; 0.1 g compound + 1 mL solvent, heated at 40°C for 10 min., returned to room temperature, visual observation
row,Structure (SMILES),solubility at 10 min
1,"CCOC(C)CCc1ccc(O)cc1 (stereo not drawn) [4-(3-Ethoxybutyl)phenol, 4-(3-ethoxybutyl)phenol]",> 100 mg/mL
2,"CC(O)CCc1ccc(O)cc1 (stereo not drawn) [4-(3-Hydroxybutyl)phenol, 4-(3-hydroxybutyl)phenol, reference compound]",> 100 mg/mL
